Test results reported in patent US20250161245A1, “A MIXTURE OF UREA, BIURET AND N-CONTAINING BY-PRODUCTS CREATED DURING BIURET PRODUCTION AS A DIETARY NON-PROTEIN NITROGEN-SOURCE FOR RUMINANTS AND USES THEREOF” (Yara International ASA, priority 2022, published 2025).

How the values were obtained:
[1] = test system: rumen microbes; experiment: microbial protein synthesis, 15N batch culture (Example 4); type: cell-based, Angus crossbred steers; details: 24 hours of incubation
Procedure: The in vitro incubations were conducted on three separate days (replicates). A representative sample of digesta was collected from different places in the rumen of ruminally cannulated steers and strained through 4 layers of cheesecloth, placed in pre-warmed thermos containers, and transported to the laboratory within 30 minutes after the collection. In the laboratory, the ruminal fluid from the two steers was maintained under constant CO2-flux and was combined in equal proportions. This combined ruminal fluid was mixed with McDougall's buffer (McDougall, 1948) with and without 0.077 g/liter of 10 wt. % ammonium sulfate enriched with ^15N in relation 1:4, and it was used as an inoculum. Two bottles of 500 ml fitted with a side arm and a rubber septum were incubated per treatment. […] At the end of the 24 hours incubation, the final pH was recorded, the bottles were placed on ice to prevent further microbial fermentation and two 10-ml samples were collected and acidified by adding 20 μl of a 20 vol/vol % of H2SO4-solution and were frozen at minus 20° C. until further analysis. […]
The total nitrogen (N) and the isotopic supplement were measured in the whole content and the bacterial pellet by an isotopic ratio mass spectrometry using a Vario Micro cube from Elementar Analyzer System GmbH. […]

[2] = animal performance of steers with NPN supplementation (Example 3); type: in vivo, crossbred yearling steers

**Q.** Which results are given for `NC(N)=O` [Urea, urea]?
**A.** Bacteria N [1]: 67.34 mg; EMPS [1]: 34.46 g of bacteria N/kg of OM truly digested; ADG ([2]; days 0-14): 0.78 kg; ADG ([2]; days 0-28): 0.81 kg; ADG ([2]; days 0-42): 1.02 kg
